Assay results: a melting point compilation (Tetko et al.; mined from patent text by program, amines drawn as free bases though some values may be those of a salt)

Q: With `Clc1c(Cl)c(Cl)c(CI)c(Cl)c1Cl` as the compound, how does the melting point read?
A: 138 to 140 °C

Q: Which melting point does the source give for `COn1c(C)nc2c(NCc3c(C)cccc3C)cc(C(=O)O)cc21` here?
A: 248 to 249 °C

Q: Which melting point does the source give for `COC(=O)c1cccc(CNC(C)=O)c1C(=O)OC` here?
A: 177 to 179 °C

Q: For `CC(=O)OI(OC(C)=O)c1ccc(-c2ccc(Cl)cc2)cc1`, which melting point is on record?
A: 147 to 150 °C

Q: With `Oc1ccc(CCCc2ccc(O)cc2O)cc1` as the compound, how does the melting point read?
A: 92 to 93 °C

Q: With `O=C(Nc1ccccc1)N1CCC(c2nn(-c3ccccc3)c3cc(F)ccc23)CC1` as the compound, how does the melting point read?
A: 163 to 165 °C

Q: Which melting point does the source give for `Cc1ccc(S(=O)(=O)OCC2Cn3c(nc4c(C)cccc43)-c3cccc(Cl)c3O2)cc1` (stereo unspecified) here?
A: 168 to 169 °C

Q: For `Cc1nc(-c2ccc(OCC(C)(C)C)c(I)c2)sc1C(=O)O`, which melting point is on record?
A: 194 to 195 °C

Q: With `CC1=C(C(=O)OC(C)(C)C)C(c2cccc(F)c2)C(C(=O)OC(C)(C)C)=C(C)N1` as the compound, how does the melting point read?
A: 178 to 179 °C

Q: For `Cn1c(=O)cc(CCc2ccc(Cl)s2)c2cc(C(O)(c3ccc(Cl)cc3)c3cccnc3)ccc21` (stereo unspecified), which melting point is on record?
A: 110 °C

Q: With `O=COC(Cc1ccccc1)C1C(=O)NC1SC(c1ccccc1)(c1ccccc1)c1ccccc1` (stereo unspecified) as the compound, how does the melting point read?
A: 169 to 171 °C

Q: Which melting point does the source give for `Cc1ccc(C)n1CC(=O)N=C(N)N` here?
A: 198 to 200 °C

Q: With `CC(=C1SC(=O)NC1=O)c1ccc(OCCOc2c(-c3cc(F)ccc3C)n(C)c3ccccc3c2=O)cc1` as the compound, how does the melting point read?
A: 192 to 196 °C

Q: For `COc1ccccc1C1CC(=O)C(C(C)=O)C(=O)C1` (stereo unspecified), which melting point is on record?
A: 65 to 66 °C

Q: For `COc1ccc(C2=NC(C)(C)CO2)cc1N`, which melting point is on record?
A: 108 to 110 °C

Q: For `Cc1ccc(S(=O)(=O)N2CCCC2c2ccc(F)c(F)c2)cc1` (racemic), which melting point is on record?
A: 127 °C

Q: Which melting point does the source give for `Cc1cccc(-n2cnc(OC(C)C(=O)O)n2)c1` (stereo unspecified) here?
A: 155 to 157 °C

Q: With `Cc1nc2cccc(C)c2c(=O)[nH]1` as the compound, how does the melting point read?
A: 255 to 257 °C

Q: With `CCCCC(CC)Cn1c(=O)nc(N(C)C)n(C)c1=O` (stereo unspecified) as the compound, how does the melting point read?
A: 74 to 75 °C

Q: With `COc1nc(C)cnc1NS(=O)(=O)c1ccccc1I` as the compound, how does the melting point read?
A: 136 to 138 °C

Q: For `NC(=O)c1cccc(-c2cccc3sc(Cc4ccc(F)c(F)c4)cc23)c1`, which melting point is on record?
A: 189 to 190 °C

Q: For `CN(C(=O)C1=NN(c2ccc(Cl)cc2)C(c2ccc(Cl)cc2)C1)c1ccc(C(F)(F)F)cc1` (stereo unspecified), which melting point is on record?
A: 181 to 183 °C

Q: With `NNC(=O)c1ncn2ccccc12` as the compound, how does the melting point read?
A: 189 °C

Q: With `Nc1c(N=O)c(=O)n(C2CC2)c(=O)n1C1CC1` as the compound, how does the melting point read?
A: 230 °C

Q: Which melting point does the source give for `CN(C)C=Nc1c(Cl)cc(N=Cc2ccccc2F)cc1Cl` here?
A: 79 to 81 °C

Q: For `NCCCC[C@H](O)C(=O)O`, which melting point is on record?
A: 197 to 199 °C

Q: For `Cc1c(NC(=O)c2ccc(OC[C@@H]3CCCO3)cc2)ccc2cc(CNCC(C)(C)C)n(C)c12`, which melting point is on record?
A: 201 °C

Q: For `CC(=O)C1=C(O)C(=C(C)Nc2ccc(S)cc2)C(=O)OC1=O`, which melting point is on record?
A: 207 to 210 °C

Q: Which melting point does the source give for `Nc1cc2[nH]c(=O)[nH]c2c2ccccc12` here?
A: 295 to 296 °C

Q: Which melting point does the source give for `O=C(Nc1ccc(Br)cc1-c1noc(=O)[nH]1)c1cccc(S(=O)(=O)N2CCOCC2)c1` here?
A: 220 to 223 °C

Q: Which melting point does the source give for `CC(C)OC(=O)NS(=O)(=O)Cl` here?
A: 66 °C

Q: With `FC(F)(F)c1ccc(-c2nccc(Oc3cccc(C(F)(F)F)c3)n2)cc1` as the compound, how does the melting point read?
A: 66 to 67 °C

Q: For `COn1ccn(C)c1=S`, which melting point is on record?
A: 56.9 to 57.5 °C

Q: With `CC(NC(=O)c1cc(Cl)cc(Br)c1N)C1CC1` (stereo unspecified) as the compound, how does the melting point read?
A: 177 °C

Q: For `N#Cc1cc(F)c(F)cc1[N+](=O)[O-]`, which melting point is on record?
A: 75 °C

Q: With `CC(=O)C(CC=Cc1ccccc1Cl)(CCC(=O)O)c1ccccc1` (stereo unspecified) as the compound, how does the melting point read?
A: 95 to 110 °C

Q: Which melting point does the source give for `CCC(O)(c1ccc(OCc2ccccc2)cc1)c1ccc(Cl)cc1Cl` (stereo unspecified) here?
A: 56 to 57 °C

Q: Which melting point does the source give for `S=C=Nc1ccc2nc(Oc3ccccc3)sc2c1` here?
A: 118 to 119 °C

Q: For `CC(=O)c1ccc(OCCCN2CCC(c3noc4cc(F)ccc34)CC2)cc1C`, which melting point is on record?
A: 113 to 114 °C

Q: With `CSc1ccc(NC(=O)CCCCCSc2nc3ccccc3o2)c(SC)n1` as the compound, how does the melting point read?
A: 125 to 126 °C

Q: For `CC(=O)N1CC(C)(C)CN=C1N(N=CC(C=Cc1ccc(C(F)(F)F)cc1)=Cc1ccc(C(F)(F)F)cc1)C(C)=O`, which melting point is on record?
A: 70 to 72 °C
